Key:
[1] = Cmax in Fischer 344 rat at 50 mg/kg, po; assay type: ADME, organism-based; set-up: dose 50 mg/kg, route oral; conditions: in vivo
[2] = Tmax in Fischer 344 rat at 50 mg/kg, po; assay type: ADME, organism-based; set-up: dose 50 mg/kg, route oral; conditions: in vivo
[3] = test system: Rattus norvegicus; assay: AUC in Fischer 344 rat at 50 mg/kg, po; assay type: ADME, organism-based, Plasma; set-up: dose 50 mg/kg, route oral; conditions: in vivo
[4] = Apparent elimination half life in Fischer 344 rat at 50 mg/kg, po; assay type: ADME, organism-based; set-up: dose 50 mg/kg, route oral; conditions: in vivo, read-out: beta t1/2 (converted)
[5] = test system: Rattus norvegicus; assay: Oral bioavailability in Fischer 344 rat at 50 mg/kg; assay type: ADME, organism-based; conditions: in vivo
[6] = in vitro; conditions: human, Caco-2
Description: Apparent permeability from apical to basolateral side of the human Caco-2 cells

[7] = molecular target: T1, Sodium-dependent serotonin transporter (Rattus norvegicus, UniProt P31652); assay type: cell-based, HEK293
T1 sequence (P31652 whole entry): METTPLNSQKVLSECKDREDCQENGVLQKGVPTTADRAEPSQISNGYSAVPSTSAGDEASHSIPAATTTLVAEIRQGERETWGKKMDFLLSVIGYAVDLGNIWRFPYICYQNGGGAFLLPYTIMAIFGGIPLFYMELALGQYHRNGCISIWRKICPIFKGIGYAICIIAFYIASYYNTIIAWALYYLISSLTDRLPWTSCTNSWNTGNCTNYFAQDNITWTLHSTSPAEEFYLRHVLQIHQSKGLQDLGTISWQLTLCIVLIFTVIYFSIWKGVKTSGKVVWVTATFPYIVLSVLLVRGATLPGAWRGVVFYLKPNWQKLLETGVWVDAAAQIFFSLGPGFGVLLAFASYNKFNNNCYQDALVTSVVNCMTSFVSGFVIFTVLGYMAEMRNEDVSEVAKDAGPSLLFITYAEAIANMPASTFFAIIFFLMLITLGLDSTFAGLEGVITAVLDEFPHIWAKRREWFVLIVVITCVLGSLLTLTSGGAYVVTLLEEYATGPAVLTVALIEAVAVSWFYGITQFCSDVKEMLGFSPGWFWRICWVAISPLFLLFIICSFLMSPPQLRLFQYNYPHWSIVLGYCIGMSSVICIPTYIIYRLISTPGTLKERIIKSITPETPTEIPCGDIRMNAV

[8] = Lipophilicity, log D of the compound; assay type: physicochemical; conditions: octanol/water
[9] = Partition coefficient, log P of the compound; assay type: physicochemical; conditions: octanol/water
[10] = Metabolic stability in human liver microsomes assessed as systemic clearance at 1 uM after 15 mins by LC-MS/MS analysis; assay type: ADME, Microsome
[11] = Metabolic stability in rat liver microsomes assessed as systemic clearance at 1 uM after 15 mins by LC-MS/MS analysis; assay type: ADME, Microsome
[12] = molecular target: Cytochrome P450 2D6 (Homo sapiens, UniProt P10635); assay: Inhibition of CYP2D6; assay type: ADME
Sequence of Cytochrome P450 2D6 (P10635 whole entry): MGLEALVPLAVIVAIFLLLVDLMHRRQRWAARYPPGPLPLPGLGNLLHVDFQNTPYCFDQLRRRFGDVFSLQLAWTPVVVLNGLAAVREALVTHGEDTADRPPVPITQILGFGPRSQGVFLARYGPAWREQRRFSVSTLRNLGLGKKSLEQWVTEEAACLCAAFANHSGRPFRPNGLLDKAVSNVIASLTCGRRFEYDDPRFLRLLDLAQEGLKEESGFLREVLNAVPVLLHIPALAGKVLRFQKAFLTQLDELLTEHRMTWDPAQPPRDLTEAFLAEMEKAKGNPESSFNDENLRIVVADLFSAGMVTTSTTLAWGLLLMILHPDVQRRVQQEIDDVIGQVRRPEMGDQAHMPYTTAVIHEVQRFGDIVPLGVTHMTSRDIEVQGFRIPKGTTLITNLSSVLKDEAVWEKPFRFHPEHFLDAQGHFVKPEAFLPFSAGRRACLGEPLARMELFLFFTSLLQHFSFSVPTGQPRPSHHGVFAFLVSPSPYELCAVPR

[13] = Cmax in Sprague-Dawley rat at 30 mg/kg, po; assay type: ADME, organism-based; set-up: dose 30 mg/kg, route oral; conditions: in vivo
[14] = Tmax in Sprague-Dawley rat at 30 mg/kg, po; assay type: ADME, organism-based; set-up: dose 30 mg/kg, route oral; conditions: in vivo
[15] = AUC in Sprague-Dawley rat at 30 mg/kg, po; assay type: ADME, organism-based; set-up: dose 30 mg/kg, route oral; conditions: plasma
[16] = Apparent elimination half life in Sprague-Dawley rat at 30 mg/kg, po; assay type: ADME, organism-based; set-up: dose 30 mg/kg, route oral; conditions: in vivo, read-out: beta t1/2 (converted)
[17] = Apparent oral clearance in Sprague-Dawley rat at 30 mg/kg, po; assay type: ADME, organism-based; set-up: dose 30 mg/kg, route oral; conditions: in vivo
[18] = Drug level in Sprague-Dawley rat brain at 30 mg/kg, po after 1 hr; assay type: ADME, organism-based; set-up: dose 30 mg/kg, route oral; conditions: read-out: Drug uptake
[19] = Drug level in Sprague-Dawley rat brain at 30 mg/kg, po after 4 hrs; assay type: ADME, organism-based; set-up: dose 30 mg/kg, route oral; conditions: read-out: Drug uptake
[20] = Ratio of drug level in brain to plasma in Sprague-Dawley rat at 30 mg/kg, po after 1 hr; assay type: ADME, organism-based; set-up: dose 30 mg/kg, route oral
[21] = Ratio of drug level in brain to plasma in Sprague-Dawley rat at 30 mg/kg, po after 4 hrs; assay type: ADME, organism-based; set-up: dose 30 mg/kg, route oral
[22] = AUC in Sprague-Dawley rat at 5 mg/kg, iv; assay type: ADME, organism-based; set-up: dose 5 mg/kg, route intravenous; conditions: plasma
[23] = Half life in Sprague-Dawley rat at 5 mg/kg, iv; assay type: ADME, organism-based; set-up: dose 5 mg/kg, route intravenous; conditions: in vivo
[24] = Mean residence time in Sprague-Dawley rat at 5 mg/kg, iv; assay type: ADME, organism-based; set-up: dose 5 mg/kg, route intravenous; conditions: in vivo
[25] = Plasma clearance in Sprague-Dawley rat at 5 mg/kg, iv; assay type: ADME, organism-based; set-up: dose 5 mg/kg, route intravenous
[26] = Renal clearance in Sprague-Dawley rat at 5 mg/kg, iv; assay type: ADME, organism-based, Kidney; set-up: dose 5 mg/kg, route intravenous; conditions: in vivo, read-out: CL_renal
[27] = Volume of distribution at steady state in Sprague-Dawley rat at 5 mg/kg, iv; assay type: ADME, organism-based; set-up: dose 5 mg/kg, route intravenous; conditions: in vivo, read-out: Vdss
[28] = Volume of distribution in Sprague-Dawley rat at 5 mg/kg, iv; assay type: ADME, organism-based; set-up: dose 5 mg/kg, route intravenous; conditions: in vivo
[29] = Bioavailability in Sprague-Dawley rat at 5 mg/kg, iv; assay type: ADME, organism-based; conditions: in vivo
[30] = test system: Rattus norvegicus; assay: Antinociceptive activity in CD rat assessed as reduction in number of hind paw flinching at 60 mg/kg, po by formalin test; assay type: functional; set-up: scale not given: the % may be the effect or the level left
[31] = Drug excretion in Sprague-Dawley rat urine at 5 mg/kg, iv; assay type: ADME, organism-based; set-up: dose 5 mg/kg, route intravenous; conditions: read-out: Activity
[32] = molecular target: Voltage-gated inwardly rectifying potassium channel KCNH2 (Homo sapiens, UniProt Q12809)
Description: Inhibition of human ERG expressed in HEK293 cells by patch-clamp method

[33] = physchem
Description: Dissociation constant, pKa of the compound

[34] = molecular target: Sodium-dependent noradrenaline transporter (Homo sapiens, UniProt P23975); assay: biochemical
Sequence of Sodium-dependent noradrenaline transporter (P23975 whole entry): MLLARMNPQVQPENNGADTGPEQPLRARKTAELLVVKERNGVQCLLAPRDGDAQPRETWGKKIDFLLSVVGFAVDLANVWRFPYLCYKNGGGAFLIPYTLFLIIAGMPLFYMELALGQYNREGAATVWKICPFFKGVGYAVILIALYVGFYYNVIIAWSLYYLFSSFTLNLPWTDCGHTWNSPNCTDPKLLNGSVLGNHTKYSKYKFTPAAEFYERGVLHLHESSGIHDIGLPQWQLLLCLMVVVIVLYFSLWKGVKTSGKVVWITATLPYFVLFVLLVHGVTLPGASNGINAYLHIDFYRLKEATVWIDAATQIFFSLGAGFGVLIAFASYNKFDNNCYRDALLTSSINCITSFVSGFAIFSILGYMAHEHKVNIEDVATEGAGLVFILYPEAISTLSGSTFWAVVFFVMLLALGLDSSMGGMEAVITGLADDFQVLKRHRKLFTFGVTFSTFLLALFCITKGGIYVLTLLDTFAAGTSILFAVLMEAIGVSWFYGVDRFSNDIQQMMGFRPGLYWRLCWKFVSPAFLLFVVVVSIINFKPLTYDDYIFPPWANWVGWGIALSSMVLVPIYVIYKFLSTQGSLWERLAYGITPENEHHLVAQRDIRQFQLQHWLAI
Description: Displacement of Levo[ring-2,5,6-3H]norepinephrine from human cloned NET expressed in HEK293 cells by microplate scintillation counter

[35] = molecular target: Sodium-dependent serotonin transporter (Homo sapiens, UniProt P31645); assay: biochemical
Sequence of Sodium-dependent serotonin transporter (Homo sapiens, UniProt P31645) (P31645 whole entry): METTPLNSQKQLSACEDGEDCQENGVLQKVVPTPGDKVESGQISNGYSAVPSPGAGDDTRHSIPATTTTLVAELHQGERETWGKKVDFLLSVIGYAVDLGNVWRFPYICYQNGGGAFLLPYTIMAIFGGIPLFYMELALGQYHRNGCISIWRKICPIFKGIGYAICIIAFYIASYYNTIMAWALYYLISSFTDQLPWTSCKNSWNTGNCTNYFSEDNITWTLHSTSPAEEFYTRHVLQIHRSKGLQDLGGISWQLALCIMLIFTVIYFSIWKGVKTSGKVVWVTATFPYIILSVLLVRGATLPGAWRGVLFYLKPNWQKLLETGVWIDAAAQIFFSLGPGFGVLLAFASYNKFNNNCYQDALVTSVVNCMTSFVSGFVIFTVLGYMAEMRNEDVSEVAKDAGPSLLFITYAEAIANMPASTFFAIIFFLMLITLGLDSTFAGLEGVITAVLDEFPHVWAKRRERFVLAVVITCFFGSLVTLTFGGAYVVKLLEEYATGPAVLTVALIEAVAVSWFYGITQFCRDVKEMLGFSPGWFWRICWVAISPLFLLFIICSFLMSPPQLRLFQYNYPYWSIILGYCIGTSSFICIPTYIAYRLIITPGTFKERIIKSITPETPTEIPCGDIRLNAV
Description: Displacement of [alpha,beta-3H(N)]-5-hydroxytryptamine from human cloned SERT expressed in HEK293 cells by microplate scintillation counter

[36] = molecular target: Sodium-dependent dopamine transporter (Homo sapiens, UniProt Q01959); assay: biochemical
Sequence of Sodium-dependent dopamine transporter (Homo sapiens, UniProt Q01959) (Q01959 whole entry): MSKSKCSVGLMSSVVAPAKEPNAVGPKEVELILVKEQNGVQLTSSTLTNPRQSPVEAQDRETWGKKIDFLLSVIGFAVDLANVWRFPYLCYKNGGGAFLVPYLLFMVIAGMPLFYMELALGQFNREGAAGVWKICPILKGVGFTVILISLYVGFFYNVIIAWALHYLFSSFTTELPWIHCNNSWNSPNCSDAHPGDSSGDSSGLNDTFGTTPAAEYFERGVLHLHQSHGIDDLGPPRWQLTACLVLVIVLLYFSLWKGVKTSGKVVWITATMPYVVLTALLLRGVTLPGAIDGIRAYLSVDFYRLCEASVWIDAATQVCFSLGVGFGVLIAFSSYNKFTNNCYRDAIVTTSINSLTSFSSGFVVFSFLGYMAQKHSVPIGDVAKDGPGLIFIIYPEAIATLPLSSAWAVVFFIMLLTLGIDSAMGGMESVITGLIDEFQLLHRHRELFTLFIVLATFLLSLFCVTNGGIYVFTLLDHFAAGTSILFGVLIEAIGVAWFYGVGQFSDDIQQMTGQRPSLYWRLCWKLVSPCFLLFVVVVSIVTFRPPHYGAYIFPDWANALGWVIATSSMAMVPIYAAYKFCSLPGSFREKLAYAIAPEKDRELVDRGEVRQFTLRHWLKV
Description: Displacement of 3,4-[ring-2,5,6-3H]dihydroxyphenylethylamine from human cloned DAT expressed in HEK293 cells by microplate scintillation counter

[37] = molecular target: T2, Transporter (Rattus norvegicus, UniProt Q63380); assay: biochemical
T2 sequence (Q63380 whole entry): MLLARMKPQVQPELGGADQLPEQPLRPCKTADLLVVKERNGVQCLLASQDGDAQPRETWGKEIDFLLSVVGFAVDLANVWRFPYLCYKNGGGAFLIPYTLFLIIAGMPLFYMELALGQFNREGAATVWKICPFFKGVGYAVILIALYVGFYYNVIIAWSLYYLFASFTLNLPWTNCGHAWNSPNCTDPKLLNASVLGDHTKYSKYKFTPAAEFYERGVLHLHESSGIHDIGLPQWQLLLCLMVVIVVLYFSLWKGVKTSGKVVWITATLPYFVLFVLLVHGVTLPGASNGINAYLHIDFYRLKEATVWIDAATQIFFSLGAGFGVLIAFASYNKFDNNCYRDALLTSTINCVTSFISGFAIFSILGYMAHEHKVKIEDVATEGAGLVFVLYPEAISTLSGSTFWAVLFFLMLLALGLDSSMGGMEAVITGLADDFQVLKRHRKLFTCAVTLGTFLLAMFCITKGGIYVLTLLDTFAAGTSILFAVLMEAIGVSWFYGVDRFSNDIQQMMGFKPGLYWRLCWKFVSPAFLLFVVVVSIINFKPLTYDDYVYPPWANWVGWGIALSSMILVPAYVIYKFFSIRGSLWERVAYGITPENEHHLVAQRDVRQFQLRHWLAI
Description: Displacement of Levo[ring-2,5,6-3H]norepinephrine from rat synaptosomal NET expressed in HEK293 cells by microplate scintillation counter

[38] = molecular target: Sodium-dependent dopamine transporter (Rattus norvegicus, UniProt P23977); assay: biochemical
Sequence of Sodium-dependent dopamine transporter (Rattus norvegicus, UniProt P23977) (P23977 whole entry): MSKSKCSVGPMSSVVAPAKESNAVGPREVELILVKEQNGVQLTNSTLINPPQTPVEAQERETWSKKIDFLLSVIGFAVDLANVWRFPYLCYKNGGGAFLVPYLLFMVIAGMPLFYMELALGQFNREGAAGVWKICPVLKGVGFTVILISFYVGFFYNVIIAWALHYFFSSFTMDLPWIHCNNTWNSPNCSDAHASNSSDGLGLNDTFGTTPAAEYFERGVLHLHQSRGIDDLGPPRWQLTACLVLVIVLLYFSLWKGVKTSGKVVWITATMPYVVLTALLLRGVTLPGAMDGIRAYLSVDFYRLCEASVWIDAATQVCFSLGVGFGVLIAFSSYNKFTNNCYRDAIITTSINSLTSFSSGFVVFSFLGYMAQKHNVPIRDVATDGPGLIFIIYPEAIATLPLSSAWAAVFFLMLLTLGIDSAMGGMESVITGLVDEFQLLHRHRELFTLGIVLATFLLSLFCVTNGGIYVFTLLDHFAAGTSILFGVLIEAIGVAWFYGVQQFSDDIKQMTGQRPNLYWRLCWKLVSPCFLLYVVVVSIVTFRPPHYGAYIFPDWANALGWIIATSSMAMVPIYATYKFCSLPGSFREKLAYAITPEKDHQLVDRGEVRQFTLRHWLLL
Description: Displacement of 3,4-[ring-2,5,6-3H]dihydroxyphenylethylamine from rat synaptosomal DAT expressed in HEK293 cells by microplate scintillation counter

[39] = molecular target: T1, Sodium-dependent serotonin transporter; assay: Inhibition of radiolabeled serotonin uptake from rat brain SERT
[40] = Oral bioavailability in human; assay type: ADME, organism-based; conditions: in vivo
[41] = Drug excretion in human urine; assay type: ADME; conditions: read-out: Activity
[42] = molecular target: T2, Transporter
Description: Inhibition of radiolabeled noradrenaline uptake from rat brain NET

[43] = Plasma clearance in monkey at 5 mg/kg, iv or 30 mg/kg, po; assay type: ADME, organism-based, Macaca mulatta; conditions: rhesus monkey
[44] = Renal clearance in monkey at 5 mg/kg, iv or 30 mg/kg, po; assay type: ADME, organism-based, Macaca mulatta, Kidney; conditions: rhesus monkey, in vivo; read-out: CL_renal
[45] = Half life in monkey at 5 mg/kg, iv or 30 mg/kg, po; assay type: ADME, organism-based, Macaca mulatta; conditions: rhesus monkey, in vivo
[46] = Volume of distribution at steady state in monkey at 5 mg/kg, iv or 30 mg/kg, po; assay type: ADME, organism-based, Macaca mulatta; conditions: rhesus monkey, in vivo, read-out: Vdss
[47] = Cmax in monkey at 5 mg/kg, iv or 30 mg/kg, po; assay type: ADME, organism-based, Macaca mulatta; conditions: rhesus monkey, in vivo
[48] = Tmax in monkey at 5 mg/kg, iv or 30 mg/kg, po; assay type: ADME, organism-based, Macaca mulatta; conditions: rhesus monkey, in vivo
[49] = AUC in monkey at 5 mg/kg, iv or 30 mg/kg, po; assay type: ADME, organism-based, Macaca mulatta; conditions: rhesus monkey, plasma
[50] = Bioavailability in monkey at 5 mg/kg, iv or 30 mg/kg, po; assay type: ADME, organism-based, Macaca mulatta; conditions: rhesus monkey, in vivo
[51] = Plasma clearance in Beagle dog at 5 mg/kg, iv or 30 mg/kg, po; assay type: ADME, organism-based, Canis lupus familiaris
[52] = Renal clearance in Beagle dog at 5 mg/kg, iv or 30 mg/kg, po; assay type: ADME, organism-based, Canis lupus familiaris, Kidney; conditions: in vivo, read-out: CL_renal
[53] = Half life in Beagle dog at 5 mg/kg, iv or 30 mg/kg, po; assay type: ADME, organism-based, Canis lupus familiaris; conditions: in vivo
[54] = Volume of distribution at steady state in Beagle dog at 5 mg/kg, iv or 30 mg/kg, po; assay type: ADME, organism-based, Canis lupus familiaris; conditions: in vivo, read-out: Vdss
[55] = Cmax in Beagle dog at 5 mg/kg, iv or 30 mg/kg, po; assay type: ADME, organism-based, Canis lupus familiaris; conditions: in vivo
[56] = Tmax in Beagle dog at 5 mg/kg, iv or 30 mg/kg, po; assay type: ADME, organism-based, Canis lupus familiaris; conditions: in vivo
[57] = AUC in Beagle dog at 5 mg/kg, iv or 30 mg/kg, po; assay type: ADME, organism-based, Canis lupus familiaris; conditions: plasma
[58] = Bioavailability in Beagle dog at 5 mg/kg, iv or 30 mg/kg, po; assay type: ADME, organism-based, Canis lupus familiaris; conditions: in vivo
[59] = test system: Rattus norvegicus; assay: Reversal of pin-prick-induced neuropathic mechanical hyperalgesia in Harlan Sprague-Dawley rat sciatic nerve ligation model at 30 mg/kg, po; assay type: functional

CNCC[C@@H](Oc1ccccc1C)c1ccccc1 [ATOMOXETINE]
Cmax [1]: 170 ng/mL
Tmax [2]: 2 h
AUC [3]: 910 ng·h/mL
half-life [4]: 2.8 h
F [5]: 1.5%
Papp A→B [6]: 43.7 ×10⁻⁶ cm/s

C=C(F)CN(CC)C(=O)[C@@]1(c2cccs2)C[C@H]1CN
IC50 [7]: 0.16 µM
logD [8]: 0.2
logP [9]: 1.8
CLhep predicted at 1 µM [10]: 2.6 mL/min/kg
CLhep predicted at 1 µM [11]: 54 mL/min/kg
IC50 [12]: 6 µM
Cmax [13]: 974 ng/mL
Tmax [14]: 0.4 h
AUC [15]: 1500 ng·h/mL
half-life [16]: 0.9 h
CL/F [17]: 334 mL/min/kg
concentration at 1 h [18]: 70 ng/g
concentration at 4 h [19]: 31 ng/g
Kp at 1 h [20]: 0.73
Kp at 4 h [21]: 1.1
AUC [22]: 532 ng·h/mL
half-life [23]: 0.6 h
MRT [24]: 0.7 h
clearance [25]: 140 mL/min/kg
CL renal [26]: 59 mL/min/kg
Vd [27]: 5.5 L/kg
Vd [28]: 7.5 L/kg
bioavailability [29]: 47%
Activity [30]: 56%
dose excreted [31]: 30%
IC50 [32]: > 10 µM
pKa [33]: 9.4
Papp A→B [6]: 16.7 ×10⁻⁶ cm/s
IC50 [34]: 0.0044 µM
IC50 [35]: 0.097 µM
IC50 [36]: > 10 µM
IC50 [37]: 0.021 µM
IC50 [38]: > 10 µM

CCN(CC)C(=O)C1(c2ccccc2)CC1CN (stereo not drawn)
IC50 [7]: 0.047 µM
IC50 [39]: 0.203 µM
logD [8]: 0.2
logP [9]: 1.7
CLhep predicted at 1 µM [10]: 3.1 mL/min/kg
CLhep predicted at 1 µM [11]: 24 mL/min/kg
bioavailability [40]: 85%
dose excreted [41]: > 80%
IC50 [42]: 0.1 µM
pKa [33]: 9.5
IC50 [38]: 37 µM

C=C(F)CN(CC)C(=O)[C@@]1(c2cccs2)C[C@H]1CN.Cl
clearance [43]: 34 mL/min/kg
CL renal [44]: 6 mL/min/kg
half-life [45]: 4.3 h
Vd [46]: 4.4 L/kg
Cmax [47]: 2440 ng/mL
Tmax [48]: 2.3 h
AUC [49]: 9050 ng·h/mL
bioavailability [50]: 70%
clearance [51]: 10.8 mL/min/kg
CL renal [52]: 2.2 mL/min/kg
half-life [53]: 3.5 h
Vd [54]: 2.4 L/kg
Cmax [55]: 5570 ng/mL
Tmax [56]: 1.2 h
AUC [57]: 47500 ng·h/mL
bioavailability [58]: 109%

C=CCN(CC=C)C(=O)[C@@]1(c2cccs2)C[C@H]1CN
IC50 [7]: 0.011 µM
logD [8]: 0.3
logP [9]: 2
CLhep predicted at 1 µM [10]: 9.9 mL/min/kg
CLhep predicted at 1 µM [11]: 61 mL/min/kg
IC50 [12]: 6 µM
Cmax [13]: 522 ng/mL
Tmax [14]: 0.5 h
AUC [15]: 1130 ng·h/mL
half-life [16]: 1.2 h
CL/F [17]: 444 mL/min/kg
concentration at 1 h [18]: 127 ng/g
concentration at 4 h [19]: 26 ng/g
Kp at 1 h [20]: 0.6
Kp at 4 h [21]: 1.4
AUC [22]: 721 ng·h/mL
half-life [23]: 0.6 h
MRT [24]: 0.7 h
clearance [25]: 102 mL/min/kg
CL renal [26]: 11 mL/min/kg
Vd [27]: 4.4 L/kg
Vd [28]: 5.3 L/kg
bioavailability [29]: 12%
Activity [30]: 56%
Activity [59]: 60%
pKa [33]: 9.4
Papp A→B [6]: 16.7 ×10⁻⁶ cm/s
IC50 [34]: 0.0023 µM
IC50 [35]: 0.032 µM
IC50 [36]: > 10 µM
IC50 [37]: 0.0046 µM
IC50 [38]: 19 µM

— ChEMBL document CHEMBL1152288, “Characterization of thien-2-yl 1S,2R-milnacipran analogues as potent norepinephrine/serotonin transporter inhibitors for the treatment of neuropathic pain” (J Med Chem, 2008)
